From US20180289739A1, “Combination Therapy for Treating Proliferative Diseases” (BIONOMICS LIMITED, priority 2009, published 2018)

Legend:
[1] = system: Human umbilical vein endothelial cells (HUVECs), tumour type activated endothelial cells (Tum); experiment: Proliferation Assay - Activated Endothelium (MTT); type: cell-based; details: for Potency against activated (tumour) versus quiescent (normal) endothelial cells: activated compared with quiescent endothelial cells; for IC50: Homo sapiens, HUVEC, tumour type activated endothelial cells, 48 hrs
Method: Proliferation Assay—Activated Endothelium:
(§1) Human umbilical vein endothelial cells (CC-2519, Clonetics) were plated at 2500 cells/well in EGM2 (CC-3162, Clonetics) in a 96 well plate in triplicate. Cells were cultured overnight at 37° C. 5% CO2. Medium was subsequently replaced with fresh medium including the compound or negative control. Cells were cultured for a period of 48 hrs. An MTT assay was performed to measure changes in cell numbers. Briefly, 20 μl of MTT reagent was added to cells containing 100 μl of EGM2 and incubated at 37° C. for 2 hours. Absorbance was measured at 492 nm.

[2] = system: Human umbilical vein endothelial cells (HUVECs), normal quiescent type endothelial cells (Norm); experiment: Proliferation Assay - Quiescent Endothelium (MTT); type: cell-based; details: HUVEC, 48 hrs
Method: Proliferation Assay—Quiescent Endothelium:
as §1, with “15000” for “2500”, “EBM2 (CC-3156, Clonetics)+0.5% FBS (CC-4101A, Clonetics)+GA-1000 (CC-4381A,” for “EGM2 (CC-3162,”, “EBM2+0.5% FBS” for “EGM2”

MCF-7 = experiment: Growth inhibition of cancer cell line, Sulforhodamine B (SRB) or Systmex cell counting (CC) assay; type: cell-based; details: Homo sapiens, MCF7, concentration required to inhibit net cell growth by 50%
[3] = system: MDA-MB-231 solid orthotopic tumours; experiment: Tumour Growth Inhibition, MDA-MB-231 orthotopic tumours; type: in vivo, Balb/c nu/nu mice; details: 40 mg/kg i.v., two cycles; monitored up to 72 days; vs vehicle, p<0.001 from day 4 to Day 70
Method: Tumour Growth Inhibition:
Balb/c nu/nu mice bearing MDA-MB-231 solid orthotopic tumours were treated with compound Example 2 at 40 mg/kg. Animals were i.v. dosed with a total of two cycles of Example 2 treatment. Each cycle was dosing on […] followed by a three week no-dosing period. Tumour growth represented as a ratio to initial tumour volume is shown over a total of 72-days.
Tumour growth as well as animal health were monitored for up to 72 days post-day 1 of treatment. […] Significant differences in tumour growth between Example 2 treated (n=64) and vehicle treated (n=20) animals were observed as early as day 4 (p<0.001; unpaired t-test; Prism® analysis) through to Day 70.

tubulin = experiment: Tubulin polymerisation inhibition; type: biochemical

COc1ccc(/C=C\c2cc(OC)c(OC)c(OC)c2)cc1O [Combretastatin A4]
Potency against activated (tumour) versus quiescent (normal) endothelial cells [1]: equally potent against quiescent and activated endothelial cells

COc1ccc2c(C(=O)c3cc(OC)c(OC)c(OC)c3)c(Br)oc2c1 [Comparator D]
IC50 [2]: 100 to 1000 nM | IC50 [1]: 100 to 1000 nM | IC50 (MCF-7): 500 nM

COc1cc(C(=O)c2c(C)oc3c(OP(=O)([O-])[O-])c(OC)ccc23)cc(OC)c1OC.[Na+].[Na+] [Example 2, Disodium 6-methoxy-2-methyl-3-(3,4,5-trimethoxybenzoyl)benzofuran-7-yl Phosphate]
Tumour growth (ratio to initial tumour volume) [3]: clearly show tumour growth inhibition

COc1cc(C(=O)c2c(C)oc3c(O)c(OC)ccc23)cc(OC)c1OC [Example 1, 2-Methyl-7-hydroxy-3-(3,4,5-trimethoxybenzoyl)-6-methoxybenzofuran]
IC50 [2]: 10 to 100 nM | IC50 [1]: 0.1 to 1 nM | Potency against activated (tumour) versus quiescent (normal) endothelial cells [1]: high potency towards tumour endothelial cells (activated) over normal endothelial cells (quiescent) | Tubulin polymerisation inhibition (tubulin): potent tubulin polymerisation inhibitor | IC50 (MCF-7): 2 nM

COc1ccc2c(C(=O)c3cc(OC)c(OC)c(OC)c3)coc2c1 [Comparator C]
IC50 [2]: 10 to 100 nM | IC50 [1]: 10 to 100 nM | IC50 (MCF-7): 55 nM
